How the values were obtained:
Type in all cases: in vivo, rat
[1] = test system: carrageenan-induced hind paw acute inflammation; test: Carrageenan hind paw acute inflammation model, mechanical allodynia (up-down method); conditions: Example 7, 24 h after carrageenan
Description: Animals were treated with saline (0.5% final), indomethacin, PEG, magnesium or combined PEG+magnesium solutions. Each animal received 2 injections, the first one 1 hour following carrageenan injection and the second injection 6 hours later. The total dose of PEG and magnesium chloride administered was of 2 and 0.135 g/kg (body weight) respectively. There were 10 animals per group.
Indomethacin (Fluka, cat. 57413, lot 450544/1) was dissolved in 25% hydroxyl-propyl beta cyclodextrin (hpBCD) by gentle heating and stirring. The PEG solution was composed of PEG3350 at 30% in 0.5% saline, the magnesium solution was composed of magnesium chloride at 2% and the combined PEG+magnesium solution was composed of 30% PEG3350+2% Magnesium Chloride (custom made by AAIPharma Developmental Services, Wilmington, N.C.). […]
Twenty-four hours following carrageenan injection into the left paw, the same paw was tested for mechanical allodynia. Baseline and post-treatment values for non-noxious mechanical sensitivity were evaluated using 8 Semmes-Weinstein filaments (Stoelting, Wood Dale, Ill., USA) with varying stiffness (0.4, 0.7, 1.2, 2.0, 3.6, 5.5, 8.5, and 15 g) according to the up-down method (Chaplan et al., 1994). […]
To evaluate the significance of difference between experimental groups, data were analyzed using an unpaired, two-tailed t statistical test with confidence intervals of 95%.

[2] = test system: controlled cortical impact model of brain injury; test: Morris Water Maze test of cognitive function after controlled cortical impact TBI
Excerpt: Male Sprague-Dawley rats (Harlan Sprague-Dawley, Indianapolis, Ind.), weighing 350-450 grams each were given free access to food and water before the experiment. The animals were anesthetized with halothane (1% in 70%/30% […] by mask).
The controlled cortical impact model of brain injury utilized in this study has been described in detail (Scheff and Sullivan, 1999). Animals were anesthetized with isoflorane and placed in a stereotaxic frame in the […] position. A 6 mm craniotomy located approximately midway between bregma and lambda, just above the somatosensory cortex, was made using a Michele trephine. The skull disk was then removed without disturbing the underlying dura mater. The exposed brain was injured using an electronically controlled piston (5 mm diameter, 65 kdynes). The animals in the “sham” group underwent identical surgical procedures, but the surface of the brain was not impacted.
Following surgery, animals were placed in their home cage and dosing was initiated. Animals were treated with saline (Group 1: sham, Group 2: injured), PEG (Group 3: injured), magnesium (Group 4: injured) or a combination of PEG and magnesium solutions (Group 5: injured). The PEG solution was composed of PEG3350 at 30% in 0.5% saline (custom made by AAIPharma Developmental Services, Wilmington, N.C.). […] The magnesium solution was diluted in saline 1:1 before intravenous injection as recommended by the manufacturer. In the cases of combined PEG+Mg combined treatments, animal received the PEG and magnesium components from two individual solutions.
The first two injections were administered 15 minutes following injury. Another round of two injections was given 6 hours later. […] The compounds tested were administered by bolus intravenous injection. There were 10 animals per group.
This behavioral endpoint measure the ability of the rat to learn a new task based on the memorization of spatial cues. […]. […]
To evaluate the significance of difference between experimental groups, data were analyzed using an unpaired, two-tailed t statistical test with confidence intervals of 95%. […]

[3] = test system: spinal cord contusion (T10, pneumatic impactor); test: Spinal cord lesion volume after spinal cord contusion (dural impact); conditions: Example 4, total PEG 2 g/kg, magnesium sulfate 0.12 g/kg i.v., PEG change not statistically significant
Description: Sprague-Dawley female rats (200-225 gm) received a spinal cord contusion using the Precision Scientific Inc pneumatic impactor. Prior to surgery, rats were assigned to different treatment groups based on a randomized block design so that on any given surgery day all treatments would be included. […] The vertebral column was stabilized with angled clamps on the upper thoracic (T8) and lumbar (T11) levels and the impactor with a tip diameter of 2 mm was delivered at approximately 50 kd onto the exposed, intact dura overlying the dorsal spinal cord. The impactor was immediately removed, the wound irrigated with saline, and the muscle and skin openings sutured together. Female animals were used due to the paralysis associated with the injury and ease of voiding the bladder.
At the end of the study, the spinal cords were extracted and fixed in 4% paraformaldehyde. […] Tissue sparing was determined by computed image analysis be from 10 evenly spaced sections through the injured T10 segment. […]

[4] = test system: controlled clip-compression injury at T4; test: Neuropathic pain (mechanical allodynia, Semmes-Weinstein monofilament) after SCI; conditions: Example 6; mechanical allodynia up to 3 weeks post-injury
Description: Animals were prepared as described in Example 3. Animals were tested for the development of neuropathic pain before and up to 3 weeks post-injury. Neuropathic pain occurrence and severity was evaluated by the response of the animal to a stimulus that is normally not painful or allodynia. […] The monofilament was applied 10 times for 3 seconds, with each stimulus being separated by a 5 second interval, and the number of avoidance responses out of a possible 10 were recorded. Avoidance responses were defined as flinching, escape, vocalization, or abnormal aggressive behaviors. The scoring system used to monitor mechanical allodynia has been presented in details in Gris et al., 2004. Mechanical allodynia testing was conducted twice per week and the 2 tests were averaged for each animal and reported as a weekly pain score. To evaluate the significance of difference between experimental groups, data were analyzed using an unpaired, two-tailed t statistical test with confidence intervals of 95%. The Welch's modification was also used to analyze the motor recovery to take in account the significant variability in the control group.

Q: Which “mean pain score (mechanical allodynia)” value ([1]; carrageenan-saline 3.4+/−0.5, sham 12.7+/−1.1, higher is better) does the source give for `COc1ccc2c(c1)c(CC(=O)O)c(C)n2C(=O)c1ccc(Cl)cc1` [Indomethacin] here?
A: 5.6+/−0.9

Q: `O=S(=O)([O-])[O-].[Mg+2]` [Mg, magnesium sulfate] was tested. Which “effect on cognitive functions following TBI” value ([2]; Example 1, i.v. 15 min and 6 h post-injury, total PEG 1.4 g/kg, magnesium sulfate 0.230 mmol/kg, Morris Water Maze day 9-14) did it give?
A: no effect

Q: And the “reduction of the lesion volume relative to control group (SCI-Saline)” value [3]?
A: 33%

Q: And the “effect on the development of neuropathic pain after SCI” value [4]?
A: no significant effect

Q: With `[Cl-].[Cl-].[Mg+2]` [magnesium chloride] as the molecule, how does the “effect on cognitive recovery after TBI” value ([2]; Example 2, total 1.4 g/kg PEG, 0.230 mmol/kg magnesium chloride, 2 injections 15 min and 6 h post-TBI) read?
A: no significant effect

Q: And the “effect on the loss of cognitive functions following brain injury” value ([2]; summary statement in description)?
A: no effect

Q: And the “effect on the pain score relative to animals treated with saline” value ([1]; total PEG 2 g/kg, magnesium chloride 0.135 g/kg)?
A: no significant effect

Source: patent US9950005B2, “Compositions comprising biomembrane sealing agent for treatment of neuronal injury, and methods of use” (WARSAW ORTHOPEDIC, INC., priority 2006, dated 2018)
